According to PMC9516332 (Frontiers in Oncology, 2022):
Read-outs that look alike come from different tables or passages of the source.

Experiments:
[1] = system: 134 cancer cell lines; assay: Cell viability assay (ATPlite, 72 hours), IC50 on cancer cell line panel
[2] = system: AP-1060 (ETV6-NTRK3); assay: Cell viability assay; conditions: read-out: IC50 in cell proliferation assay

## CC#CC(=O)N1CCC[C@H]1c1nc(-c2ccc(C(=O)Nc3ccccn3)cc2)c2c(N)nccn12 [acalabrutinib]
[1]; Homo sapiens, LS-411N, read-out: IC50 in cell proliferation assay
  IC50: > 31.6 µM
[1]; Homo sapiens, LoVo, read-out: IC50 in cell proliferation assay
  IC50: > 31.6 µM
[1]; Homo sapiens, MCF7, read-out: IC50 in cell proliferation assay
  IC50: > 31.6 µM
[1]; Homo sapiens, MDA-MB-231, read-out: IC50 in cell proliferation assay
  IC50: > 31.6 µM
[1]; Homo sapiens, MDA-MB-453, read-out: IC50 in cell proliferation assay
  IC50: > 31.6 µM
[1]; Homo sapiens, MDA-MB-468, read-out: IC50 in cell proliferation assay
  IC50: > 31.6 µM
[1]; Homo sapiens, MG-63, read-out: IC50 in cell proliferation assay
  IC50: > 31.6 µM
[1]; Homo sapiens, MIA PaCa-2, read-out: IC50 in cell proliferation assay
  IC50: > 31.6 µM
[1]; Homo sapiens, MKN-45, read-out: IC50 in cell proliferation assay
  IC50: > 31.6 µM
[1]; Homo sapiens, MOLM-13, read-out: IC50 in cell proliferation assay
  IC50: 9.38 µM
[1]; Homo sapiens, MOLT-4, read-out: IC50 in cell proliferation assay
  IC50: > 31.6 µM
[1]; Homo sapiens, MV4-11, read-out: IC50 in cell proliferation assay
  IC50: > 31.6 µM
[1]; Homo sapiens, MeWo, read-out: IC50 in cell proliferation assay
  IC50: > 31.6 µM
[1]; Homo sapiens, NCCIT, read-out: IC50 in cell proliferation assay
  IC50: > 31.6 µM
[1]; Homo sapiens, NCI-H82, read-out: IC50 in cell proliferation assay
  IC50: > 31.6 µM
[1]; Homo sapiens, NCI-H460, read-out: IC50 in cell proliferation assay
  IC50: > 31.6 µM
[1]; Homo sapiens, NCI-H661, read-out: IC50 in cell proliferation assay
  IC50: 11 µM
[1]; Homo sapiens, NCI-H716, read-out: IC50 in cell proliferation assay
  IC50: > 31.6 µM
[1]; Homo sapiens, NCI-H1650, read-out: IC50 in cell proliferation assay
  IC50: > 31.6 µM
[1]; Homo sapiens, NCI-H1975, read-out: IC50 in cell proliferation assay
  IC50: > 31.6 µM
[1]; Homo sapiens, NCI-H2228, read-out: IC50 in cell proliferation assay
  IC50: > 31.6 µM
[1]; Homo sapiens, OVCAR-3, read-out: IC50 in cell proliferation assay
  IC50: > 31.6 µM
[1]; Homo sapiens, PFSK-1, read-out: IC50 in cell proliferation assay
  IC50: > 31.6 µM
[1]; Homo sapiens, RL95-2, read-out: IC50 in cell proliferation assay
  IC50: > 31.6 µM
[1]; Homo sapiens, RPMI-7951, read-out: IC50 in cell proliferation assay
  IC50: > 31.6 µM
[1]; Homo sapiens, RS4-11, read-out: IC50 in cell proliferation assay
  IC50: > 31.6 µM
[1]; Homo sapiens, Rec1, read-out: IC50 in cell proliferation assay
  IC50: 0.021 µM
[1]; Homo sapiens, SHP77, read-out: IC50 in cell proliferation assay
  IC50: > 31.6 µM
[1]; Homo sapiens, SK-BR-3, read-out: IC50 in cell proliferation assay
  IC50: 0.409 µM
[1]; Homo sapiens, SK-N-AS, read-out: IC50 in cell proliferation assay
  IC50: > 31.6 µM
[1]; Homo sapiens, SK-N-FI, read-out: IC50 in cell proliferation assay
  IC50: > 31.6 µM
[1]; Homo sapiens, SK-N-MC, read-out: IC50 in cell proliferation assay
  IC50: > 31.6 µM
[1]; Homo sapiens, SK-N-SH, read-out: IC50 in cell proliferation assay
  IC50: 9.87 µM
[1]; Homo sapiens, SNU-5, read-out: IC50 in cell proliferation assay
  IC50: > 31.6 µM
[1]; Homo sapiens, SNU-16, read-out: IC50 in cell proliferation assay
  IC50: > 31.6 µM
[1]; Homo sapiens, SNU-C2B, read-out: IC50 in cell proliferation assay
  IC50: > 31.6 µM
[1]; Homo sapiens, SU-DHL-1, read-out: IC50 in cell proliferation assay
  IC50: > 31.6 µM
[1]; Homo sapiens, SU-DHL-6, read-out: IC50 in cell proliferation assay
  IC50: 0.003 µM
[1]; Homo sapiens, SUP-T1, read-out: IC50 in cell proliferation assay
  IC50: > 31.6 µM
[1]; Homo sapiens, SW48, read-out: IC50 in cell proliferation assay
  IC50: 4.43 µM
[1]; Homo sapiens, SW480, read-out: IC50 in cell proliferation assay
  IC50: > 31.6 µM
[1]; Homo sapiens, SW626, read-out: IC50 in cell proliferation assay
  IC50: > 31.6 µM
[1]; Homo sapiens, SW780, read-out: IC50 in cell proliferation assay
  IC50: > 31.6 µM
[1]; Homo sapiens, SW837, read-out: IC50 in cell proliferation assay
  IC50: > 31.6 µM
[1]; Homo sapiens, SW872, read-out: IC50 in cell proliferation assay
  IC50: > 31.6 µM
[1]; Homo sapiens, SW900, read-out: IC50 in cell proliferation assay
  IC50: > 31.6 µM
[1]; Homo sapiens, SW948, read-out: IC50 in cell proliferation assay
  IC50: > 31.6 µM
[1]; Homo sapiens, SW982, read-out: IC50 in cell proliferation assay
  IC50: > 31.6 µM
[1]; Homo sapiens, SW-620, read-out: IC50 in cell proliferation assay
  IC50: > 31.6 µM
[1]; Homo sapiens, T98G, read-out: IC50 in cell proliferation assay
  IC50: > 31.6 µM
[1]; Homo sapiens, TCC-SUP, read-out: IC50 in cell proliferation assay
  IC50: > 31.6 µM
[1]; Homo sapiens, THP-1, read-out: IC50 in cell proliferation assay
  IC50: > 31.6 µM
[1]; Homo sapiens, U2OS, read-out: IC50 in cell proliferation assay
  IC50: > 31.6 µM
[1]; Homo sapiens, U-87 MG, read-out: IC50 in cell proliferation assay
  IC50: > 31.6 µM
[1]; Homo sapiens, U-118-MG, read-out: IC50 in cell proliferation assay
  IC50: > 31.6 µM
[1]; Homo sapiens, UMUC3, read-out: IC50 in cell proliferation assay
  IC50: > 31.6 µM
[1]; Hs766T, read-out: IC50 in cell proliferation assay
  IC50: > 31.6 µM
[1]; L-82, read-out: IC50 in cell proliferation assay
  IC50: > 31.6 µM
[1]; Rh30, read-out: IC50 in cell proliferation assay
  IC50: > 31.6 µM
[2]
  IC50: > 31.6 µM
